The structures appear in SMILES notation. Some results are limits rather than exact numbers.

Type in all cases: cell-based
One assay has as its system HCC827 cells. Description: Cell growth inhibition (CellTiter-Glo, 3 days) in HCC827. The note with it: Homo sapiens, 72 h, 3 days after administration. Summed up:
(§1)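 HCC827 cells in RPMI/10% FBS and A431 cells in DMEM/10% FBS were seeded at 5000 cells/well and left overnight. Compound was then added over a concentration range for 3 days of incubation, and viability was read by CellTiter-Glo luminescence.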

Assay [1] relates to HCC827-SVD cells (human EGFR exon 20 insertion mutant D770_N771 insSVD). Description: Cell growth inhibition (CellTiter-Glo, 3 days) in HCC827-SVD. The note with it: 72 h, 3 days after administration. Summed up:
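HCC827 cells carrying lentiviral codon-optimized EGFR D770_N771 insSVD, with endogenous EGFR knocked out by CRISPR (single clone), seeded at 5000 cells/well in RPMI with 10% FBS. Viability read by CellTiter-Glo luminescence.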

The test system of assay [2] is HCC827-ASV cells (human EGFR exon 20 insertion mutant A769_D770insASV). Description: Cell growth inhibition (CellTiter-Glo, 3 days) in HCC827-ASV. The note with it: 72 h, 3 days after administration. Summed up:
(§2)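 Growth inhibition used a CellTiter-Glo luminescence read-out after 3 days of compound exposure at various concentrations. Cells were plated the day before at 5000/well in RPMI plus 10% FBS. The lines are HCC827 transduced by lentivirus with codon-optimized EGFR ASV or ERBB2 YVMA exon 20 insertions.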

The subject of assay [3] is HCC827-YVMA cells (human ERBB2 exon20 insertion mutant A775_G776ins YVMA). Description: Cell growth inhibition (CellTiter-Glo, 3 days) in HCC827-YVMA. The note with it: 72 h, 3 days after administration. Summed up: as §2
The next assay has as its system A431 cells. Description: Cell growth inhibition (CellTiter-Glo, 3 days) in A431. The note with it: Homo sapiens, A-431, 72 h, 3 days after administration. In short, it runs like this: as §1

`C=CC(=O)N1CCC(Nc2cc3c(Nc4ccc(Oc5ccnc(N6CCC(CO)(CO)C6)c5)cc4F)ncnc3cc2OC)CC1` [Example 155, 1-(4-((4-((4-((2-(3,3-bis(hydroxymethyl)pyrrolidin-1-yl)pyridin-4-yl)oxy)-2-fluorophenyl)amino)-7-methoxyquinazolin-6-yl)amino)piperidin-1-yl)prop-2-en-1-one]: the GI50 with HCC827 cells was no less than 1000 nM; in assay [1] it was 100 to 300 nM; in assay [2] it was 100 to 300 nM; in assay [3], 100 to 300 nM; with A431 cells, no less than 1000 nM.
Regarding `C=CC(=O)N1CCC(Oc2cc3c(Nc4ccc(Oc5ccnc(N6C[C@@H](C)N(C)[C@@H](C)C6)c5)cc4F)ncnc3cc2OC)CC1` [Example 156, 1-(4-((4-((2-fluoro-4-((2-((3R,5S)-3,4,5-trimethylpiperazin-1-yl)pyridin-4-yl)oxy)phenyl)amino)-7-methoxyquinazolin-6-yl)oxy)piperidin-1-yl)prop-2-en-1-one], the GI50 is no less than 1000 nM in the assay on HCC827 cells; 100 to 300 nM in assay [1]; 100 to 300 nM in assay [2]; 100 to 300 nM in assay [3]; no less than 1000 nM in the assay with A431 cells.
As for `C=CC(=O)N1CCC(Oc2cc3c(Nc4ccc(Oc5ccnc(N6CCN(C(C)C)CC6)c5)cc4F)ncnc3cc2OC)CC1` [Example 157, 1-(4-((4-((2-fluoro-4-((2-(4-isopropylpiperazin-1-yl)pyridin-4-yl)oxy)phenyl)amino)-7-methoxyquinazolin-6-yl)oxy)piperidin-1-yl)prop-2-en-1-one], the GI50 (in the assay on HCC827 cells; in assay [1]; in assay [2]; in assay [3]; in the assay on A431 cells) was no less than 1000 nM each time.
`C=CC(=O)N1CCC(Nc2cc3c(Nc4ccc(Oc5ccnc(N6C[C@H](C)C[C@H](C)C6)c5)cc4F)ncnc3cc2OC)CC1` [Example 158, 1-(4-((4-((4-((2-((3S,5R)-3,5-dimethylpiperidin-1-yl)pyridin-4-yl)oxy)-2-fluorophenyl)amino)-7-methoxyquinazolin-6-yl)amino)piperidin-1-yl)prop-2-en-1-one]: the GI50 in the assay on HCC827 cells was 600 to 1000 nM; in assay [1], 60 to 100 nM; in assay [2], 100 to 300 nM; in assay [3], 300 to 600 nM; in the assay on A431 cells it was no less than 1000 nM.
With `C=CC(=O)N1CCC(Nc2cc3c(Nc4ccc(Oc5ccnc(N6CCC(OC)C(C)(C)C6)c5)cc4F)ncnc3cc2OC)CC1` (centres unmarked) [Example 159, 1-(4-((4-((2-fluoro-4-((2-(4-methoxy-3,3-dimethylpiperidin-1-yl)pyridin-4-yl)oxy)phenyl)amino)-7-methoxyquinazolin-6-yl)amino)piperidin-1-yl)prop-2-en-1-one], the GI50 lay within 100 to 300 nM in the assay on HCC827 cells; 30 to 60 nM in assay [1]; 30 to 60 nM in assay [2]; 60 to 100 nM in assay [3]; 300 to 600 nM in the assay with A431 cells.
Take `C=CC(=O)N1CCC(Nc2cc3c(Nc4ccc(Oc5ccnc(N6CC7C(C6)C7(F)F)c5)cc4F)ncnc3cc2OC)CC1` (centres unmarked) [Example 160, 1-(4-((4-((4-((2-(6,6-difluoro-3-azabicyclo[3.1.0]hexan-3-yl)pyridin-4-yl)oxy)-2-fluorophenyl)amino)-7-methoxyquinazolin-6-yl)amino)piperidin-1-yl)prop-2-en-1-one]: the GI50 with HCC827 cells was 30 to 60 nM; in assay [1] it was less than 30 nM; in assay [2] it was less than 30 nM; in assay [3], less than 30 nM; in the assay on A431 cells, 60 to 100 nM.
On to `C=CC(=O)N1CCC(Nc2cc3c(Nc4ccc(Oc5ccnc(N6CC(C(F)(F)F)C6)c5)cc4F)ncnc3cc2OC)CC1` [Example 161, 1-(4-((4-((2-fluoro-4-((2-(3-(trifluoromethyl)azetidin-1-yl)pyridin-4-yl)oxy)phenyl)amino)-7-methoxyquinazolin-6-yl)amino)piperidin-1-yl)prop-2-en-1-one], for which the GI50 in the assay on HCC827 cells was 100 to 300 nM; in assay [1], less than 30 nM; in assay [2], less than 30 nM; in assay [3] it was less than 30 nM; in the assay with A431 cells, 300 to 600 nM.
In the case of `C=CC(=O)N1CCC(Oc2cc3c(Nc4ccc(Oc5ccnc(N6CC[C@@H](N(C)C)C6)c5)cc4F)ncnc3cc2OC)CC1` [Example 162, (R)-1-(4-((4-((4-((2-(3-(dimethylamino)pyrrolidin-1-yl)pyridin-4-yl)oxy)-2-fluorophenyl)amino)-7-methoxyquinazolin-6-yl)oxy)piperidin-1-yl)prop-2-en-1-one], the GI50 with HCC827 cells was 100 to 300 nM; in assay [1] it was 100 to 300 nM; in assay [2] it was 100 to 300 nM; in assay [3], 100 to 300 nM; in the assay on A431 cells, no less than 1000 nM.
In the case of `C=CC(=O)N1CCC(Oc2cc3c(Nc4ccc(Oc5ccnc(N6C[C@H](OC)[C@H](OC)C6)c5)cc4F)ncnc3cc2OC)CC1` [Example 163, 1-(4-((4-((4-((2-((3R,4S)-3,4-dimethoxypyrrolidin-1-yl)pyridin-4-yl)oxy)-2-fluorophenyl)amino)-7-methoxyquinazolin-6-yl)oxy)piperidin-1-yl)prop-2-en-1-one], the GI50 with HCC827 cells was no less than 1000 nM; in assay [1], 30 to 60 nM; in assay [2], 30 to 60 nM; in assay [3] it was 100 to 300 nM; in the assay on A431 cells it was no less than 1000 nM.
For `C=CC(=O)N1CCC(Nc2cc3c(Nc4ccc(Oc5ccnc(N6CCC[C@@H](OC)C6)c5)cc4F)ncnc3cc2OC)CC1` [Example 164, (R)-1-(4-((4-((2-fluoro-4-((2-(3-methoxypiperidin-1-yl)pyridin-4-yl)oxy)phenyl)amino)-7-methoxyquinazolin-6-yl)amino)piperidin-1-yl)prop-2-en-1-one], the GI50 is 300 to 600 nM in the assay on HCC827 cells; less than 30 nM in assay [1]; less than 30 nM in assay [2]; less than 30 nM in assay [3]; 600 to 1000 nM with A431 cells.
Turning to `C=CC(=O)N1CCC(Oc2cc3c(Nc4ccc(Oc5cc(N6C[C@@H](C)O[C@@H](C)C6)ncc5Cl)cc4F)ncnc3cc2OC)CC1` [Example 166, 1-(4-((4-((4-((5-chloro-2-((2R,6S)-2,6-dimethylmorpholino)pyridin-4-yl)oxy)-2-fluorophenyl)amino)-7-methoxyquinazolin-6-yl)oxy)piperidin-1-yl)prop-2-en-1-one], the GI50 in the assay on HCC827 cells is 300 to 600 nM; in assay [1], no less than 1000 nM; in assay [2], 100 to 300 nM; in assay [3], 300 to 600 nM; in the assay on A431 cells, no less than 1000 nM.
Regarding `C=CC(=O)Nc1cc2c(Nc3ccc(Oc4ccnc(-c5nc(C)cs5)c4)cc3F)ncnc2cc1OCC` [Example 168, N-(7-ethoxy-4-((2-fluoro-4-((2-(4-methylthiazol-2-yl)pyridin-4-yl)oxy)phenyl)amino)quinazolin-6-yl)acrylamide], the GI50 in the assay with HCC827 cells was no less than 1000 nM; in assay [1] it was 300 to 600 nM; in assay [2], no less than 1000 nM; in assay [3], no less than 1000 nM; in the assay with A431 cells it was no less than 1000 nM.
In the case of `C=CC(=O)Nc1cc2c(Nc3ccc(Oc4ccnc(N5C[C@@H](C)O[C@@H](C)C5)c4)cc3F)ncnc2cc1OCC` [Example 169, N-(4-((4-((2-((2S,6R)-2,6-dimethylmorpholino)pyridin-4-yl)oxy)-2-fluorophenyl)amino)-7-ethoxyquinazolin-6-yl)acrylamide], the GI50 (with HCC827 cells; in assay [1]; in assay [2]; in assay [3]; in the assay on A431 cells) was no less than 1000 nM in each case.
Turning to `C=CC(=O)N1CCC(Nc2cc3c(Nc4ccc(Oc5ccnc(N6CC[C@H](O)[C@H](F)C6)c5)cc4F)ncnc3cc2OC)CC1` [Example 170, 1-(4-((4-((2-fluoro-4-((2-((3R,4S)-3-fluoro-4-hydroxypiperidin-1-yl)pyridin-4-yl)oxy)phenyl)amino)-7-methoxyquinazolin-6-yl)amino)piperidin-1-yl)prop-2-en-1-one], the GI50 in the assay on HCC827 cells is 600 to 1000 nM; in assay [1], 60 to 100 nM; in assay [2], 60 to 100 nM; in assay [3] it was 100 to 300 nM; in the assay with A431 cells, no less than 1000 nM.
Take `C=CC(=O)N1CCC(Nc2cc3c(Nc4ccc(Oc5ccnc(N6CCC(O)C(C)(C)C6)c5)cc4F)ncnc3cc2OC)CC1` (centres unmarked) [Example 171, 1-(4-((4-((2-fluoro-4-((2-(4-hydroxy-3,3-dimethylpiperidin-1-yl)pyridin-4-yl)oxy)phenyl)amino)-7-methoxyquinazolin-6-yl)amino)piperidin-1-yl)prop-2-en-1-one]: the GI50 was in the range of 300 to 600 nM in the assay with HCC827 cells; 30 to 60 nM in assay [1]; 30 to 60 nM in assay [2]; 30 to 60 nM in assay [3]; 600 to 1000 nM in the assay on A431 cells.
In the case of `C=CC(=O)N1CCC(Nc2cc3c(Nc4ccc(Oc5ccnc(N6CCC(O)C(F)(F)C6)c5)cc4F)ncnc3cc2OC)CC1` (centres unmarked) [Example 172, 1-(4-((4-((4-((2-(3,3-difluoro-4-hydroxypiperidin-1-yl)pyridin-4-yl)oxy)-2-fluorophenyl)amino)-7-methoxyquinazolin-6-yl)amino)piperidin-1-yl)prop-2-en-1-one], the GI50 in the assay on HCC827 cells is 300 to 600 nM; in assay [1], less than 30 nM; in assay [2] it was less than 30 nM; in assay [3], less than 30 nM; in the assay with A431 cells, 600 to 1000 nM.
